In the oligonucleotide strings, read from the 5' end, every base follows the letter of its sugar. An asterisk marks phosphorothioate; unmarked linkages are phosphodiester. Other units and linkages are bracketed, terminal groups are in braces. A string of capitals states the bases alone. e = 2'-O-(2-methoxyethyl) (MOE); [5mC] = 5-methylcytosine; d = 2'-deoxy (DNA)
Test system: mouse apolipoprotein B mRNA
Assay: Inhibition of mouse apolipoprotein B mRNA levels in primary mouse hepatocytes, real-time PCR
Format: cell-based
Conditions: for % INHIB: Table 3, 150 nM, averages from two experiments; for Percent Inhibition 50 nM: Table 4, 50 nM; for Percent Inhibition 150 nM: Table 4, 150 nM; for Percent Inhibition 300 nM: Table 4, 300 nM
Protocol: Primary mouse hepatocytes were prepared from CD-1 mice purchased from Charles River Labs (Wilmington, Mass.) and were routinely cultured in Hepatoyte Attachment Media (Gibco) supplemented with 10% Fetal Bovine Serum (Gibco/Life Technologies, Gaithersburg, Md.), 250 nM dexamethasone (Sigma), and 10 nM bovine insulin (Sigma). Cells were seeded into 96-well plates (Falcon-Primaria #3872) at a density of 10000 cells/well for use in RT-PCR analysis.
When cells reached 80% confluency, they were treated with oligonucleotide. For cells grown in 96-well plates, wells were washed once with 200 μL OPTI-MEM™-1 reduced-serum medium (Gibco BRL) and then treated with 130 μL of OPTI-MEM™-1 containing 3.75 μg/mL LIPOFECTIN™ (Gibco BRL) and the desired concentration of oligonucleotide. After 4-7 hours of treatment, the medium was replaced with fresh medium. Cells were harvested 16-24 hours after oligonucleotide treatment.
Quantitation of apolipoprotein B mRNA levels was determined by real-time quantitative PCR using the ABI PRISM™ 7700 Sequence Detection System (PE-Applied Biosystems, Foster City, Calif.) according to manufacturer's instructions. This is a closed-tube, non-gel-based, fluorescence detection system which allows high-throughput quantitation of polymerase chain reaction (PCR) products in real-time. As opposed to standard PCR, in which amplification products are quantitated after the PCR is completed, products in real-time quantitative PCR are quantitated as they accumulate. This is accomplished by including in the PCR reaction an oligonucleotide probe that anneals specifically between the forward and reverse PCR primers, and contains two fluorescent dyes. A reporter dye (e.g., JOE, FAM, or VIC, obtained from either Operon Technologies Inc., Alameda, Calif. or PE-Applied Biosystems, Foster City, Calif.) is attached to the 5′ end of the probe and a quencher dye (e.g., TAMRA, obtained from either Operon Technologies Inc., Alameda, Calif. or PE-Applied Biosystems, Foster City, Calif.) is attached to the 3′ end of the probe. When the probe and dyes are intact, reporter dye emission is quenched by the proximity of the 3′ quencher dye. During amplification, annealing of the probe to the target sequence creates a substrate that can be cleaved by the 5′-exonuclease activity of Taq polymerase. […] With each cycle, additional reporter dye molecules are cleaved from their respective probes, and the fluorescence intensity is monitored at regular intervals by laser optics built into the ABI PRISM™ 7700 Sequence Detection System. In each assay, a series of parallel reactions containing serial dilutions of mRNA from untreated control samples generates a standard curve that is used to quantitate the percent inhibition after antisense oligonucleotide treatment of test samples.
Probes and primers to mouse apolipoprotein B were designed to hybridize to a mouse apolipoprotein B sequence, using published sequence information (GenBank accession number M35186, incorporated herein as SEQ ID NO: 10). For mouse apolipoprotein B the PCR primers were: forward primer: CGTGGGCTCCAGCATTCTA (SEQ ID NO: 11) reverse primer: […] (SEQ ID NO: 12) and the PCR probe was: FAM-[…]-TAMRA SEQ ID NO: 13) where FAM (PE-Applied Biosystems, Foster City, Calif.) is the fluorescent reporter dye) and TAMRA (PE-Applied Biosystems, Foster City, Calif.) is the quencher dye. For mouse GAPDH the PCR primers were: forward primer: […] (SEQ ID NO: 14) reverse primer: […] (SEQ ID NO:15) and the PCR probe was: 5′ JOE-[…]-TAMRA 3′ (SEQ ID NO: 16) where JOE (PE-Applied Biosystems, Foster City, Calif.) is the fluorescent reporter dye) and TAMRA (PE-Applied Biosystems, Foster City, Calif.) is the quencher dye.
In accordance with the present invention, a series of oligonucleotides was designed to target different regions of the mouse apolipoprotein B RNA, using published sequence (GenBank accession number M35186, incorporated herein as SEQ ID NO: 10). […]

| Substance | % INHIB | also measured |
| --- | --- | --- |
| 147505 (eG*eG*eA*eA*eG*dT*dG*dA*dG*dA*d[5mC]*dT*dT*dT*d[5mC]*eT*eA*eA*eG*e[5mC]; antisense) [compound 147505] | 76% | – |
| 147507 (eA*eT*eT*eG*eG*d[5mC]*dT*dT*d[5mC]*dA*dT*dT*dG*dG*d[5mC]*eA*eA*e[5mC]*eA*e[5mC]; antisense) [compound 147507] | 81% | – |
| 147778 (antisense eT*e[5mC]*eA*eG*eA*dT*dA*dT*dA*d[5mC]*dA*dT*dT*dG*dG*e[5mC]*eT*eT*e[5mC]*eA) [compound 147778] | 14% | – |
| 147776 (antisense eG*e[5mC]*eT*eT*eG*dA*dA*dG*dT*dT*d[5mC]*dA*dT*dT*dG*eA*eG*eA*eA*eT) [compound 147776] | 92% | Percent Inhibition 50 nM: 0%; Percent Inhibition 150 nM: 17%; Percent Inhibition 300 nM: 44% |
| 147487 (eT*eT*e[5mC]*e[5mC]*e[5mC]*dA*dG*dT*d[5mC]*dA*dG*d[5mC]*dT*dT*dT*eA*eG*eT*eG*eG; antisense) [compound 147487] | 73% | – |
| 147762 (eA*eT*eG*e[5mC]*eT*d[5mC]*d[5mC]*dA*dT*dT*d[5mC]*dT*d[5mC]*dA*d[5mC]*eA*eT*eG*e[5mC]*eT; antisense) [compound 147762] | 46% | – |
| 147476 (eG*eA*eG*eG*eA*dG*dA*dT*dT*dG*dG*dA*dT*d[5mC]*dT*eT*eA*eA*eG*eG; antisense) [compound 147476] | 13% | – |
| 147502 (eA*eT*eG*eG*eG*dA*dG*d[5mC]*dA*dT*dG*dG*dA*dG*dG*eT*eT*eG*eG*e[5mC]; antisense) [compound 147502] | 16% | – |
| 147491 (eG*eA*eG*eA*eA*dA*dT*d[5mC]*d[5mC]*dT*dT*d[5mC]*dA*dG*dT*eA*eA*eG*eG*eG; antisense) [compound 147491] | 71% | – |
| 147489 (e[5mC]*e[5mC]*eT*eA*eT*dA*d[5mC]*dT*dG*dG*d[5mC]*dT*dT*d[5mC]*dT*eA*eT*eG*eT*eT; antisense) [compound 147489] | 5% | – |
| 147759 (eA*eG*eG*eT*eG*dA*dG*dG*dA*dA*dG*dT*dT*dG*dG*eA*eA*eT*eT*e[5mC]; antisense) [compound 147759] | 19% | – |
| 147492 (e[5mC]*eA*eA*eT*eG*dG*dA*dA*dT*dG*d[5mC]*dT*dT*dG*dT*e[5mC]*eA*e[5mC]*eT*eG; antisense) [compound 147492] | 68% | – |
| 147480 (eT*e[5mC]*eT*e[5mC]*eA*d[5mC]*d[5mC]*d[5mC]*dT*d[5mC]*dA*dT*dG*d[5mC]*dT*e[5mC]*e[5mC]*eA*eT*eT; antisense) [compound 147480] | 54% | – |
| 147494 (eA*e[5mC]*eA*eA*e[5mC]*dT*dG*dG*dG*dA*dT*dA*dG*dT*dG*eT*eA*eG*e[5mC]*e[5mC]; antisense) [compound 147494] | 84% | – |
| 147763 (eT*eG*e[5mC]*eG*eA*d[5mC]*dT*dG*dT*dG*dT*d[5mC]*dT*dG*dA*eT*eT*eT*e[5mC]*e[5mC]; antisense) [compound 147763] | 34% | – |
| 147503 (eA*eA*eT*eG*eG*dA*dT*dG*dA*dT*dG*dA*dA*dA*d[5mC]*eA*eG*eT*eG*eG; antisense) [compound 147503] | 26% | – |
| 147493 (eG*e[5mC]*eT*eT*e[5mC]*dA*dT*dT*dA*dT*dA*dG*dG*dA*dG*eG*eT*eG*eG*eT; antisense) [compound 147493] | 41% | – |
| 147488 (eA*eG*e[5mC]*eT*eT*dG*d[5mC]*dT*dT*dG*dT*dT*dG*dG*dG*e[5mC]*eA*e[5mC]*eG*eG; antisense) [compound 147488] | 72% | – |
| 147773 (antisense e[5mC]*eA*eT*e[5mC]*eA*dG*dA*d[5mC]*dG*dT*dG*dA*dT*dG*dT*eT*e[5mC]*e[5mC]*e[5mC]*eT) [compound 147773] | 85% | – |

| Substance | % INHIB | also measured |
| --- | --- | --- |
| 147501 (e[5mC]*eT*eT*eG*eG*dT*dT*dA*dA*dA*d[5mC]*dT*dA*dA*dT*eG*eG*eT*eG*e[5mC]; antisense) [compound 147501] | 18% | – |
| 147485 (eA*eT*eT*eT*eG*dG*dG*dA*d[5mC]*dG*dA*dA*dT*dG*dT*eA*eT*eG*e[5mC]*e[5mC]; antisense) [compound 147485] | 64% | – |
| 147765 (eA*eG*eG*e[5mC]*e[5mC]*d[5mC]*dA*dG*dT*dT*d[5mC]*d[5mC]*dA*dT*dG*eA*e[5mC]*e[5mC]*e[5mC]*eT; antisense) [compound 147765] | 59% | – |
| 147475 (eA*eT*eT*eG*eT*dA*dT*dG*dT*dG*dA*dG*dA*dG*dG*eT*eG*eA*eG*eG; antisense) [compound 147475] | 79% | – |
| 147499 (e[5mC]*eT*eG*e[5mC]*eA*dG*dG*dG*d[5mC]*dG*dT*d[5mC]*dA*dG*dT*eG*eA*e[5mC]*eA*eA; antisense) [compound 147499] | 29% | – |
| 147769 (e[5mC]*eA*eT*eG*e[5mC]*d[5mC]*dT*dG*dG*dA*dA*dG*d[5mC]*d[5mC]*dA*eG*eT*eG*eT*e[5mC]) [compound 147769] | 89% | Percent Inhibition 50 nM: 3%; Percent Inhibition 150 nM: 14%; Percent Inhibition 300 nM: 28% |
| 147498 (eT*eG*eG*eG*e[5mC]*dA*dA*d[5mC]*dG*dA*dT*dA*dT*d[5mC]*dT*eG*eA*eT*eT*eG; antisense) [compound 147498] | 0% | – |
| 147478 (eT*e[5mC]*e[5mC]*eA*eG*dG*dA*dA*dT*dT*dG*dA*dG*d[5mC]*dT*eT*eG*eT*eG*e[5mC]; antisense) [compound 147478] | 78% | – |
| 147761 (eG*eT*eT*e[5mC]*eA*dT*dG*dG*dA*dT*dT*d[5mC]*d[5mC]*dT*dT*e[5mC]*eA*eG*eG*eA; antisense) [compound 147761] | 45% | – |
| 147774 (antisense eT*eG*eG*e[5mC]*eT*dA*dG*dT*dT*dT*d[5mC]*dA*dA*dT*d[5mC]*e[5mC]*e[5mC]*e[5mC]*eT*eT) [compound 147774] | 84% | – |
| 147482 (eG*eT*e[5mC]*e[5mC]*eA*dG*d[5mC]*d[5mC]*dT*dA*dG*dG*dA*dA*d[5mC]*eA*e[5mC]*eT*e[5mC]*eA; antisense) [compound 147482] | 59% | – |
| 147506 (eA*eG*eG*eA*eA*dG*dG*dA*dA*d[5mC]*dT*d[5mC]*dT*dT*dG*eA*eT*eA*eT*eT; antisense) [compound 147506] | 58% | – |
| 147495 (eG*eT*eT*eA*eG*dG*dA*d[5mC]*d[5mC]*dA*dG*dG*dG*dA*dT*eT*eG*eT*eG*eA; antisense) [compound 147495] | 0% | – |
| 147770 (eG*eT*eG*eT*eT*dG*dA*dA*dT*d[5mC]*d[5mC]*d[5mC]*dT*dT*dG*eA*eA*eA*eT*e[5mC]; antisense) [compound 147770] | 67% | – |
| 147768 (e[5mC]*e[5mC]*e[5mC]*eA*eT*dA*dT*dG*dG*dA*dG*dA*dA*dA*dT*e[5mC]*e[5mC]*eT*eT*e[5mC]; antisense) [compound 147768] | 24% | – |
| 147484 (eT*eT*e[5mC]*eA*eT*d[5mC]*d[5mC]*dG*dA*dG*dA*dA*dG*dT*dT*eG*eG*eG*eA*e[5mC]; antisense) [compound 147484] | 49% | – |
| 147767 (e[5mC]*eG*eT*e[5mC]*e[5mC]*dT*dT*dG*dA*dG*d[5mC]*dA*dG*dT*dG*e[5mC]*e[5mC]*e[5mC]*eG*eA; antisense) [compound 147767] | 5% | – |
| 147766 (eG*eG*eA*eG*e[5mC]*d[5mC]*d[5mC]*dA*d[5mC]*dG*dT*dG*d[5mC]*dT*dG*eA*eG*eA*eT*eT; antisense) [compound 147766] | 59% | – |

— patent US7803930B2, “Antisense modulation of apolipoprotein B-expression” (Isis Pharmaceuticals, Inc., priority 2002, dated 2010)
